Measurements taken from US8735384B2, “Amino heteroaryl compounds as beta-secretase modulators and methods of use” (Amgen Inc., priority 2010, dated 2014).
Read-outs that look alike come from different tables or passages of the source.

Key:
BACE1 = BACE1 (Homo sapiens, UniProt P56817); assay: In vitro enzymatic BACE FRET assay; assay type: biochemical; settings: beta secretase enzyme 0.2 nM, FRET substrate 50 nM, pH 4.2; read-out: BACE1 FRET assay (IC50 class)
Method in brief: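 Enzyme activity was measured as release of quenching from a 50 nM fluorophore/quencher peptide spanning the cleavage site, over 1 h. This followed 1 h pre-incubation of 0.2 nM enzyme with compound dilutions at pH 4.2 (acetate, 10% DMSO, genapol). Tris addition ended the reaction before fluorescence was measured.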

[1] = test system: Aβ40 in conditioned medium of cells stably expressing Amyloid Precursor Protein (APP); assay: In vitro BACE cell-based assay (HEK cell assay), Aβ40 sandwich ELISA; settings: inhibition of Aβ40, 24 h incubation, read-out: HEK cell assay (IC50 class)
Method in brief: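 Aβ40 in conditioned medium measured after 24 h compound exposure (10-point series, 100 μM or 10 μM start, 0.1% DMSO) of cells stably expressing APP, seeded 40K/well. Detection: pAb40/6E10-biotin sandwich ELISA at 4°C with time-resolved europium read-out; IC50 derived from percent of control.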

Sequence of BACE1 (P56817 46-501, species assumed): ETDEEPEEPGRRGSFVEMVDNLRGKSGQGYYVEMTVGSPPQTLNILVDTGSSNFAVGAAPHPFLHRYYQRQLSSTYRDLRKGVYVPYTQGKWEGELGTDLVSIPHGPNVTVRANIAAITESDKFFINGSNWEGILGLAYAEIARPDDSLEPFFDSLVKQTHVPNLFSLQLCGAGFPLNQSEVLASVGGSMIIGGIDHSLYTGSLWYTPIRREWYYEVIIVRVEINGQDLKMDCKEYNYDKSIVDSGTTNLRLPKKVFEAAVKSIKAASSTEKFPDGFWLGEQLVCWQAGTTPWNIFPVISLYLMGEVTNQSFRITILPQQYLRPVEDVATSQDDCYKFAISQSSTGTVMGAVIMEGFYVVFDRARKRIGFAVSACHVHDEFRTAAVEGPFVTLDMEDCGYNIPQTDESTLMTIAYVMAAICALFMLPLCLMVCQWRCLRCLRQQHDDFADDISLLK

Structure (SMILES)	IC50 (BACE1)	IC50 ([1]; Homo sapiens, HEK293, 24 h)	IC50 [1]
CCCCC(=O)c1cccc(C)c1-c1ccc2nc(N)c(N3CCOCC3)cc2c1 [Example 180, 1-(2-(2-amino-3-morpholinoquinolin-6-yl)-3-methylphenyl)pentan-1-one]	< 100 nM	1010 to 5000 nM	
Cc1cccc(C(=O)C2CCCCC2)c1-c1ccc2nc(N)c(N3CCOCC3)cc2c1 [Example 181, (2-(2-amino-3-morpholinoquinolin-6-yl)-3-methylphenyl)(cyclohexyl)methanone]	< 100 nM	1010 to 5000 nM	
CC=CC(=O)c1cccc(C)c1-c1ccc2nc(N)c(N3CCOCC3)cc2c1 [Example 183, 1-(2-(2-amino-3-morpholinoquinolin-6-yl)-3-methylphenyl)but-2-en-1-one]	100 to 500 nM	1010 to 5000 nM	
Cc1cccc(C(=O)C2CCCC2)c1-c1ccc2nc(N)c(N3CCOCC3)cc2c1 [Example 184, (2-(2-amino-3-morpholinoquinolin-6-yl)-3-methylphenyl)(cyclopentyl)methanone]	< 100 nM	501 to 1000 nM	
Cc1cccc(C(=O)C2CC2)c1-c1ccc2nc(N)c(N3CCOCC3)cc2c1 [Example 186, (2-(2-amino-3-morpholinoquinolin-6-yl)-3-methylphenyl)(cyclopropyl)methanone]	100 to 500 nM	1010 to 5000 nM	
COc1ccccc1C(=N)c1cccc(C)c1-c1ccc2nc(N)c(N3C[C@@H]4C[C@H]3CO4)cc2c1 [Example 188, 3-((1S,4S)-2-oxa-5-azabicyclo[2.2.1]heptan-5-yl)-6-(2-(imino(2-methoxyphenyl)methyl)-6-methylphenyl)quinolin-2-amine]	100 to 500 nM	501 to 1000 nM	
Nc1nc2ccc(-c3c(CC4OCCO4)cccc3C(=O)N3CCCC3)cc2cc1N1CCOCC1 [Example 192, (3-((1,3-dioxolan-2-yl)methyl)-2-(2-amino-3-morpholinoquinolin-6-yl)phenyl)(pyrrolidin-1-yl)methanone]	< 100 nM	100 to 500 nM	
Cc1cccc(C(=O)N2CCCC2)c1-c1ccc2nc(N)c(C3CCOC(C)(C)C3)cc2c1 (centres unmarked) [Example 205, (2-(2-amino-3-(2,2-dimethyltetrahydro-2H-pyran-4-yl)quinolin-6-yl)-3-methylphenyl)(pyrrolidin-1-yl)methanone]	< 100 nM	< 100 nM	
Cc1cccc(C(=O)N2CCCC2)c1-c1ccc2nc(N)c(C3CCCOCC3)cc2c1 (centres unmarked) [Example 206, (2-(2-amino-3-(oxepan-4-yl)quinolin-6-yl)-3-methylphenyl)(pyrrolidin-1-yl)methanone]	< 100 nM	100 to 500 nM	
Cc1cccc(C(=O)N2CCCC2)c1-c1ccc2nc(N)c(C3CCCO3)cc2c1 (centres unmarked) [Example 207, (2-(2-amino-3-(tetrahydrofuran-2-yl)quinolin-6-yl)-3-methylphenyl)(pyrrolidin-1-yl)methanone]	100 to 500 nM	1010 to 5000 nM	
Cc1cccc(C(=O)N2CCCC2)c1-c1ccc2nc(N)c(N3CCOC(C)C3C)cc2c1 (centres unmarked) [Example 209, (2-(2-amino-3-(2,3-dimethylmorpholino)quinolin-6-yl)-3-methylphenyl)(pyrrolidin-1-yl)methanone]	< 100 nM	501 to 1000 nM	
Cc1cccc(C(=O)N2CCCC2)c1-c1ccc2nc(N)c(N3CCOC[C@@H]3C)cc2c1 [Example 210, (S)-(2-(2-amino-3-(3-methylmorpholino)quinolin-6-yl)-3-methylphenyl)(pyrrolidin-1-yl)methanone]	501 to 1000 nM	1010 to 5000 nM	
Cc1cccc(C(=O)N2CCC(F)(F)C2)c1-c1ccc2nc(N)c(C3CCOCC3)cc2c1 [Example 211, (2-(2-amino-3-(tetrahydro-2H-pyran-4-yl)quinolin-6-yl)-3-methylphenyl)(3,3-difluoropyrrolidin-1-yl)methanone]	< 100 nM	100 to 500 nM	
COc1ccccc1C(=O)c1cccc(C)c1-c1ccc2nc(N)c(C3CCOCC3)cc2c1 [Example 212, (2-(2-amino-3-(tetrahydro-2H-pyran-4-yl)quinolin-6-yl)-3-methylphenyl)(2-methoxyphenyl)methanone]	< 100 nM	< 100 nM	
Cc1cccc(C(=O)N2CCCC2)c1-c1ccc2nc(N)c(N3CCOC(CC(C)C)C3)cc2c1 (centres unmarked) [Example 213, (2-(2-amino-3-(2-isobutylmorpholino)quinolin-6-yl)-3-methylphenyl)(pyrrolidin-1-yl)methanone]	< 100 nM	1010 to 5000 nM	

More lines, now with the values ahead:

IC50 (BACE1)	IC50 ([1]; Homo sapiens, HEK293, 24 h)	IC50 [1]	Structure (SMILES)
< 100 nM	501 to 1000 nM		Cc1cccc(C(=O)CC(C)C)c1-c1ccc2nc(N)c(N3CCOCC3)cc2c1 [Example 182, 1-(2-(2-amino-3-morpholinoquinolin-6-yl)-3-methylphenyl)-3-methylbutan-1-one]
< 100 nM	1010 to 5000 nM		Cc1cccc(C(=O)Cc2ccccc2)c1-c1ccc2nc(N)c(N3CCOCC3)cc2c1 [Example 185, 1-(2-(2-amino-3-morpholinoquinolin-6-yl)-3-methylphenyl)-2-phenylethanone]
< 100 nM	100 to 500 nM		COc1cccnc1C(=O)c1cccc(C)c1-c1ccc2nc(N)c(N3CCOCC3)cc2c1 [Example 187, (2-(2-amino-3-morpholinoquinolin-6-yl)-3-methylphenyl)(3-methoxypyridin-2-yl)methanone]
100 to 500 nM	501 to 1000 nM		Cc1cccnc1C(=O)c1cccc(C)c1-c1ccc2nc(N)c(N3CCOCC3)cc2c1 [Example 189, (2-(2-amino-3-morpholinoquinolin-6-yl)-3-methylphenyl)(3-methylpyridin-2-yl)methanone]
< 100 nM		100 to 500 nM	Cc1cccc(/C(=N/O)c2ccccc2)c1-c1ccc2nc(N)c(N3CCOCC3)cc2c1 [Example 190, (E)-(2-(2-amino-3-morpholinoquinolin-6-yl)-3-methylphenyl)(phenyl)methanone oxime]
< 100 nM	1010 to 5000 nM		CO/N=C(/c1ccccc1)c1cccc(C)c1-c1ccc2nc(N)c(N3CCOCC3)cc2c1 [Example 191, (Z)-(2-(2-amino-3-morpholinoquinolin-6-yl)-3-methylphenyl)(phenyl)methanone O-methyl oxime]
< 100 nM	< 100 nM		Cc1ccccc1C(N)c1cccc(C)c1-c1ccc2nc(N)c(N3CCOCC3)cc2c1 (centres unmarked) [Example 193, 6-(2-(amino(o-tolyl)methyl)-6-methylphenyl)-3-morpholinoquinolin-2-amine]
501 to 1000 nM	100 to 500 nM		Cc1cccnc1C(N)c1cccc(C)c1-c1ccc2nc(N)c(N3CCOCC3)cc2c1 (centres unmarked) [Example 194, 6-(2-(amino(3-methylpyridin-2-yl)methyl)-6-methylphenyl)-3-morpholinoquinolin-2-amine]
< 100 nM	< 100 nM		COc1ccccc1C(N)c1cccc(C)c1-c1ccc2nc(N)c(N3CCOCC3)cc2c1 (centres unmarked) [Example 195, 6-(2-(amino(2-methoxyphenyl)methyl)-6-methylphenyl)-3-morpholinoquinolin-2-amine]
100 to 500 nM	100 to 500 nM		Cc1cccc(C(N)c2ccccn2)c1-c1ccc2nc(N)c(N3CCOCC3)cc2c1 (centres unmarked) [Example 196, 6-(2-(amino(pyridin-2-yl)methyl)-6-methylphenyl)-3-morpholinoquinolin-2-amine]
100 to 500 nM	100 to 500 nM		Cc1cccc(C(N)c2ncccc2Cl)c1-c1ccc2nc(N)c(N3CCOCC3)cc2c1 (centres unmarked) [Example 197, 6-(2-(amino(3-chloropyridin-2-yl)methyl)-6-methylphenyl)-3-morpholinoquinolin-2-amine]
100 to 500 nM	< 100 nM		COc1cccnc1C(N)c1cccc(C)c1-c1ccc2nc(N)c(N3CCOCC3)cc2c1 (centres unmarked) [Example 198, 6-(2-(amino(3-methoxypyridin-2-yl)methyl)-6-methylphenyl)-3-morpholinoquinolin-2-amine]
< 100 nM	100 to 500 nM		Cc1cccc(C(O)c2ccccc2)c1-c1ccc2nc(N)c(N3CCOCC3)cc2c1 (centres unmarked) [Example 199, (2-(2-amino-3-morpholinoquinolin-6-yl)-3-methylphenyl)(phenyl)methanol]
< 100 nM	1010 to 5000 nM		Cc1cccc(Cc2cccc(C#N)c2)c1-c1ccc2nc(N)c(N3CCOCC3)cc2c1 [Example 200, 3-(2-(2-amino-3-morpholinoquinolin-6-yl)-3-methylbenzyl)benzonitrile]
< 100 nM	1010 to 5000 nM		Cc1cccc(Cc2ccc(F)cc2)c1-c1ccc2nc(N)c(N3CCOCC3)cc2c1 [Example 201, 6-(2-(4-fluorobenzyl)-6-methylphenyl)-3-morpholinoquinolin-2-amine]
< 100 nM	1010 to 5000 nM		Cc1cccc(Cc2ccccc2F)c1-c1ccc2nc(N)c(N3CCOCC3)cc2c1 [Example 202, 6-(2-(2-fluorobenzyl)-6-methylphenyl)-3-morpholinoquinolin-2-amine]
< 100 nM	> 5000 nM		COc1cccc(Cc2cccc(C)c2-c2ccc3nc(N)c(N4CCOCC4)cc3c2)c1 [Example 203, 6-(2-(3-methoxybenzyl)-6-methylphenyl)-3-morpholinoquinolin-2-amine]
501 to 1000 nM	> 5000 nM		Cc1cccc(-n2cc(Cl)cn2)c1-c1ccc2nc(N)c(N3CCOCC3)cc2c1 [Example 204, 6-(2-(4-chloro-1H-pyrazol-1-yl)-6-methylphenyl)-3-morpholinoquinolin-2-amine]
< 100 nM	100 to 500 nM		Cc1cccc(COc2cc(C(F)(F)F)ccc2Cl)c1-c1ccc2nc(N)c(N3CCOCC3)cc2c1 [Example 208, 6-(2-((2-chloro-5-(trifluoromethyl)phenoxy)methyl)-6-methylphenyl)-3-morpholinoquinolin-2-amine]
